Assays:
[1] = Therapeutic index; conditions: read-out: Therapeutic index
[2] = Toxic concentration against uninfected cells and their ability to generate XTT formazan; assay type: ADME, cell-based; conditions: read-out: TC50 (the source's name)
Human alphaherpesvirus 1 = assay: Inhibitory concentration against herpes simplex virus (HSV-1-lacZ) replication

Compound	selectivity ratio [1]	CC50 [2] [nM]	EC50 (Human alphaherpesvirus 1) [nM]
COc1cccc(CN2C[C@@H](C)NC(=O)c3sc4ccc(OC)cc4c32)c1	170	3400	30
COc1ccc2sc3c(c2c1)SCCNC3=O	60	7600	125
COc1ccc2sc3c(c2c1)N[C@H](Cc1ccccc1)CNC3=O	16	1400	90
COc1ccc(CN2CCNC(=O)c3sc4ccc(OC)cc4c32)cc1	830	10000	12
COc1ccc2sc3c(c2c1)N(Cc1ccc([N+](=O)[O-])cc1)CCNC3=O	500	25000	50
COc1ccc2sc3c(c2c1)NC[C@@H](C(C)C)NC3=O	37	3300	90
COc1ccc2sc3c(c2c1)NC[C@@H](C)NC3=O	50	1000	20
COc1cccc(CN2C[C@@H](Cc3ccccc3)NC(=O)c3sc4ccc(OC)cc4c32)c1	9	4000	450
COc1ccc2sc3c(c2c1)N(C)CCNC3=O	28	12500	440
COc1ccc2sc3c(c2c1)NC[C@H](CC(C)C)NC3=O	100	2000	20
COc1ccc2sc3c(c2c1)N[C@H](C)CNC3=O	54	7000	130
COc1ccc2sc3c(c2c1)N(Cc1ccc(C)cc1)CCNC3=O	360	11000	30
COc1ccc2sc3c(c2c1)N(Cc1cccc([N+](=O)[O-])c1)CCNC3=O	6250	25000	4
COc1cccc(CN2CCNC(=O)c3sc4ccc(OC)cc4c32)c1	25000	10000	0.4
COc1ccc2sc3c(c2c1)N(Cc1ccc(Cl)cc1)CCNC3=O	300	12000	40
COc1ccc2sc3c(c2c1)OCCNC3=O	60	13100	210
COc1ccc2sc3c(c2c1)NC[C@@H](Cc1ccccc1)NC3=O	29	10000	340

Compound	selectivity ratio [1]	CC50 [2] [nM]	EC50 (Human alphaherpesvirus 1) [nM]
COc1ccc2sc3c(c2c1)[S+]([O-])CCNC3=O (centres undefined)	10	25800	2550
COc1ccc2sc3c(c2c1)N(Cc1ccccc1Cl)CCNC3=O	1500	12000	8
COc1ccc2sc3c(c2c1)N[C@@H](Cc1ccccc1)CNC3=O	110	1100	10
COc1ccc2sc3c(c2c1)N(Cc1cccc(Cl)c1)CCNC3=O	4000	20000	5
COc1ccc2sc3c(c2c1)NC[C@H](C(C)C)NC3=O	67	4000	60
COc1ccc2sc3c(c2c1)N(Cc1cccc(C)c1)CCNC3=O	2400	12000	5
COc1ccc2sc3c(c2c1)N[C@@H](C)CNC3=O	40	2000	50
COc1ccc2sc3c(c2c1)NCCNC3=O	35	4500	130
COc1ccc2sc3c(c2c1)NC[C@H](C)NC3=O	35	6000	170
COc1cccc(CN2C[C@H](Cc3ccccc3)NC(=O)c3sc4ccc(OC)cc4c32)c1	67	6000	90
COc1ccc2sc3c(c2c1)NC[C@@H](CC(C)C)NC3=O	18	7000	390
COc1ccc2sc3c(c2c1)NC[C@H](Cc1ccccc1)NC3=O	7	1900	280
COc1ccc2sc3c(c2c1)N(Cc1ccccc1C)CCNC3=O	1200	25000	21
COc1ccc2sc3c(c2c1)N(Cc1ccccc1)CCNC3=O	1600	8000	5
C=CCN1CCNC(=O)c2sc3ccc(OC)cc3c21	1750	1750	1
COc1cccc(CN2C[C@H](C)NC(=O)c3sc4ccc(OC)cc4c32)c1	550	11000	20
